Measurements reported in US4880825A, “Mitomycin derivatives” (Kyowa Hakko Kogyo Kabushiki Kaisha, priority 1987, dated 1989).
≈ marks a conversion by molar mass, not a printed value.

What was measured:
[1] = tested on: Staphylococcus aureus ATCC 6538P; experiment: Anti-bacterial activity, minimum inhibitory concentration by agar dilution method at pH 7.0 (SA); format: cell-based; conditions: ATCC6538P
Description: (§1) In this table, the microorganisms are abbreviated as follows:
SA: Staphylococcus aureus ATCC 6538P

[2] = tested on: Klebsiella pneumoniae ATCC 10031; experiment: Anti-bacterial activity, minimum inhibitory concentration by agar dilution method at pH 7.0 (KP); format: cell-based; conditions: ATCC10031
Description: as §1
KP: Klebsiella pneumoniae ATCC 10031.

Leukemia P-388 = experiment: Effects upon Leukemia P-388 (survival of CDF1 mice implanted with P-388 cells); format: in vivo, mouse (CDF1); conditions: abdominally once; for ILS(%) (Increased Life Span): 24 h after implantation, CDF1 mice, 33 days, ratio to untreated control survival; for ILS* (ratio of ILS % of test compound to ILS % of mitomycin C): relative to mitomycin C as control under the same conditions
Procedure: P-388 ascites tumour was abdominally implanted into a mouse (DBA/2). 7 days after this, ascitic fluid was collected from the tumour-carrying mouse. The number of P-388 cells was counted to prepare a cell suspension containing 5×10^6 cells/ml using a sterilized physiological saline solution. 0.2 ml of the cell suspension containing 1×10^6cells was abdominally implanted into each mouse of CDF1 strain (body weight 20-25 g). […] The effect of the test compound was evaluated with reference to the ILS % (Increased Life Span) (the ratio of the average survival days of the test animals to the average survival days of the control group of untreated animals). The following Table 5 indicates ILS* (the ratio of ILS % obtained using each of the test compounds to the corresponding ILS % obtained using mitomycin C as control under the same conditions).

[3] = Acute toxicity (LD50, Behrens-Koerber method); conditions: mouse, in vivo, ip; ddy mice, abdominally administered once, 14 days observation
Procedure: From the death ratio of each test group of animals, acute toxicity (LD50) was calculated by the "Behrens-Koerber" method.

[4] = tested on: Streptococcus faecalis ATCC 10541; experiment: Anti-bacterial activity, minimum inhibitory concentration by agar dilution method at pH 7.0 (SF); format: cell-based; conditions: Enterococcus faecalis, ATCC10541
Description: as §1
SF: Streptococcus faecalis ATCC 10541

[5] = tested on: Proteus vulgaris ATCC 6897; experiment: Anti-bacterial activity, minimum inhibitory concentration by agar dilution method at pH 7.0 (PV); format: cell-based; conditions: ATCC6897
Description: as §1
PV: Proteus vulgaris ATCC 6897

Row | SMILES | MIC [1] [µg/mL] | MIC [2] [µg/mL] | ILS(%) (Increased Life Span) (Leukemia P-388; dose 0.39 mg/kg) | ILS* (ratio of ILS % of test compound to ILS % of mitomycin C) (Leukemia P-388; dose 0.39 mg/kg) | LD50 at 336 h [3] [mg/kg] | MIC [4] [µg/mL] | MIC [5] [µg/mL] | ILS(%) (Increased Life Span) (Leukemia P-388; dose 5 mg/kg) | ILS* (ratio of ILS % of test compound to ILS % of mitomycin C) (Leukemia P-388; dose 5 mg/kg) | ILS(%) (Increased Life Span) (Leukemia P-388; dose 2.5 mg/kg) | ILS* (ratio of ILS % of test compound to ILS % of mitomycin C) (Leukemia P-388; dose 2.5 mg/kg) | ILS(%) (Increased Life Span) (Leukemia P-388; dose 1.56 mg/kg) | ILS* (ratio of ILS % of test compound to ILS % of mitomycin C) (Leukemia P-388; dose 1.56 mg/kg) | ILS(%) (Increased Life Span) (Leukemia P-388; dose 12.5 mg/kg) | ILS* (ratio of ILS % of test compound to ILS % of mitomycin C) (Leukemia P-388; dose 12.5 mg/kg)
1 | CO[C@@]12[C@H](COC(N)=O)C3=C(C(=O)C(C)C4(OCCO4)C3=O)N1C[C@@H]1N[C@@H]12 (stereo partly shown) [Compound 1, 7-demethoxy-6,7-dihydro-7-ethylenedioxymitomycin A] | 0.039 (≈ 0.103 µM) | 0.0049 (≈ 0.0129 µM) | 169 | 1.00 | 0.7 | 0.078 (≈ 0.206 µM) | 0.0098 (≈ 0.0258 µM) |  |  |  |  |  |  |  | 
2 | CC1C(=O)C2=C(C(=O)C13OCCO3)[C@H](COC(N)=O)[C@@]1(O)[C@@H]3[C@H](CN21)N3C (stereo partly shown) [Compound 2, 7-demethoxy-6,7-dihydro-7-ethylenedioxymitomycin B] | 2.5 (≈ 6.59 µM) | 1.3 (≈ 3.43 µM) |  |  | 7.5 | 2.6 (≈ 6.85 µM) | 0.63 (≈ 1.66 µM) | 173 | 1.06 |  |  |  |  |  | 
3 | CO[C@@]12[C@H](COC(N)=O)C3=C(C(=O)C(C)C4(OCCO4)C3=O)N1C[C@H]1[C@@H]2N1C (stereo partly shown) [Compound 3, 7-demethoxy-6,7-dihydro-7-ethylenedioxymitomycin F] | 0.31 (≈ 0.788 µM) | 0.31 (≈ 0.788 µM) |  |  | 4.5 | 0.31 (≈ 0.788 µM) | 0.63 (≈ 1.6 µM) |  |  | 153 | 0.77 |  |  |  | 
4 | CO[C@]12[C@@H]3[C@H](CN1C1=C(C(=O)C4(OCCO4)C(C)C1=O)[C@@H]2COC(N)=O)N3C (stereo partly shown) [Compound 4, 7-demethoxy-6,7-dihydro-7-ethylenedioxymitomycin J] | 0.63 (≈ 1.6 µM) | 0.31 (≈ 0.788 µM) |  |  | 6 | 0.31 (≈ 0.788 µM) | 0.63 (≈ 1.6 µM) | 180 | 1.16 |  |  |  |  |  | 
5 | CO[C@@]12[C@H](COC(N)=O)C3=C(C(=O)C(C)(Cl)C4(OCCO4)C3=O)N1C[C@@H]1N[C@@H]12 (stereo partly shown) [Compound 8, 6-chloro-7-demethoxy-6,7-dihydro-7-ethylenedioxymitomycin A] | 0.039 (≈ 0.0942 µM) | 0.039 (≈ 0.0942 µM) |  |  | 3.75 | 1.3 (≈ 3.14 µM) | 1.3 (≈ 3.14 µM) |  |  |  |  | > 164 | > 0.93 |  | 
6 | CN1[C@H]2[C@@H]1CN1C3=C(C(=O)C4(OCCO4)C(C)(Cl)C3=O)[C@H](COC(N)=O)[C@@]21O (stereo partly shown) [Compound 9, 6-chloro-7-demethoxy-6,7-dihydro-7-ethylenedioxymitomycin B] | > 40 | 5 (≈ 12.1 µM) |  |  | 15 | 10 (≈ 24.2 µM) | > 40 |  |  |  |  |  |  | 159 | 1.13
7 | CO[C@@]12[C@H](COC(N)=O)C3=C(C(=O)C(C)(Br)C4(OCCO4)C3=O)N1C[C@H]1[C@@H]2N1C (stereo partly shown) [Compound 10, 6-bromo-7-demethoxy-6,7-dihydro-7-ethylenedioxymitomycin F] | 0.63 (≈ 1.33 µM) | 5 (≈ 10.6 µM) |  |  |  | 2.5 (≈ 5.29 µM) | 5 (≈ 10.6 µM) |  |  |  |  |  |  |  | 
